Data from patent US11141406B2, “Pharmaceutical compounds” (REVIRAL LIMITED, priority 2017, dated 2021).

How the values were obtained:
Assay type in all cases: cell-based
[1] = system: RSV fusion (HEK293T cells transfected with pCDNA3.1_A2_F); assay: RSV fusion assay; details: human respiratory syncytial virus, HEK-293T, read-out: RSV Fusion Assay (n ≥ 2) IC50
Experimental: HEK293T ((ECACC 12022001) cells were cultured in T75 culture flasks in Dulbecco's medium (DMEM) containing 10% Foetal Bovine serum (FBS), 50 units per mL Penicillin and 50 μg/mL Streptomycin and warmed to 37° C. prior to use. The cells were passaged by first washing briefly with 5 mL Phosphate buffered saline (PBS), followed by addition of 2 mL of Trypsin Ethylenediaminetetraacetic acid (EDTA) to detach the cells. Once cells had detached from the flask, 8 mL media was then added to and the cells dispersed via pipetting against the bottom of the flask.
The cells were counted and diluted to 3×10^5 cells/mL in fresh media. Two T75 flasks were each seeded with 15.6 mL diluted cells, cells were also subcultured at a ratio of between 1:2 and 1:10, to continue the stock. The flasks were then incubated for 24 h at 37° C. and 5% CO2.
The plasmid DNA (for pFR-Luc and pcDNA3.1_Gal4/NFKB) to be transfected into the HEK 293T cells was first prepared in serum free media (Opti-MEM, Invitrogen), containing the transfection reagent FuGENE® 6 (Promega). Serum free media was placed in a 1.5 mL eppendorf tube then the FuGENE 6 was added into the media. The tube was vortexed for 1 s before being incubated at RT for 5 min. 7.79 ng of both pFR_luc and pCDNA3.1_A2_F plasmid DNA were added to tube 1 and 7.79 ng of pCDNA3.1_GAL4-NF-κB plasmid to tube 2. The tubes were vortexed for 1 second and then incubated at room temperature for 15 min. Each transfection mixture was then added into the media of one of the T75 flasks of 293T cells. Cells were cultured for 24 h at 37° C., 5% CO2 in a humidified incubator.
Compounds were diluted (in a polypropylene round-bottomed 96 well plate) 1:3 in a twelve point dilution curve to give top [final] of either 25 μM, 3 μM, 1 μM or 500 nM. A control compound was included in every assay at a top concentration of 3 μM. Transfected cells were counted and diluted to 4×10^5 cells/mL in fresh media. 50 μL of transfection population 1 were added to all wells of the 96 well flat bottom white opaque assay plates. 100 μL diluted compound (2 rows per compound), control compound (one row) and controls (DMSO (0% inhibition, four wells), 3 μM positive control (100% inhibition, four wells) and media (transfection population 1 only, four wells) were added to the appropriate wells. 50 μL of the diluted (4×10^5 cells/mL) population 2 cells when then added to all wells, except the four wells of transfection population 1 only where an extra 50 μL of this cells population was added.
The plates were then incubated for 24 h at 37° C. and 5% CO2. After this time, 100 μL was removed from all wells and 60 μL of ONE-Glo™ (Promega) reagent, pre-equilibrated to room temperature, was added. Plates were then incubated for 3 min at room temperature before luminescence was read, using the ONE-Glo protocol, on the GloMax Explorer System (Promega) multimode reader. Analysis was carried out in Dotmatics software. All raw data were background subtracted (subtraction of mean 3 μM positive control value), before IC50 calculation.

[2] = system: RSV A2 VR-1540; assay: RSV plaque reduction assay, typical conditions (HEp-2 cells); details: human respiratory syncytial virus
Experimental: The plaque reduction assay was typically performed as follows. HEp-2 cells (ATCC, CCL23) were passaged in flasks and seeded in 96-well plates in DMEM containing antibiotics and supplemented with 10% FBS. During inoculation and subsequent incubation, cells were cultured in DMEM containing 3% FBS. 100 plaque forming unit (PFU)/well of RSV (RSV A2 VR-1540) was mixed with ten serial dilutions of compound. Subsequently, 100 μL of the virus/compound mixtures was added to confluent HEp-2 cell monolayers. The cells and virus/compound mixtures were incubated at 35° C. in a humidified 5% CO2 incubator for 1 day.
Cells were washed twice with PBS before adding 50% v % v EtOH/MeOH, and then stored at −20° C. On the day of the staining, fixative was first removed from the plates. Plates were washed 3× with PBS. A pre-titrated amount of the primary antibody was added in 60 μL PBS/2% milk powder, and plates incubated for 1 h at rt. The plates were washed 3× with PBS/0.05% Tween20 before addition of goat anti-mouse horse radish peroxidase in 60 μL PBS/2% milk powder, and incubated for 1 h at rt. Following three wash steps with PBS/0.05% Tween20, 60 μL ready-to-use TrueBlue was added and plates were incubated at it for 10-15 min before adding MilliQ water. Plates were washed once with water, incubated for 30-60 min and after removal of water, air-dried in the dark.
(§1) Plates were scanned and analyzed using the Immunospot S6 UV analyzer, which is equipped with BioSpot analysis software for counting immunostained plaques (virospots). Plaque counts were used to calculate % infection relative to the mean of the spot count (SC) in the virus control wells for RSV. IC50/IC90 values were calculated as 50% or 90% reduction in signal, respectively, by interpolation of inhibition curves fitted with a 4-parameter nonlinear regression with a variable slope in GraphPad 5.0 (Prism). Alternatively, where noted the plaque reduction assay was performed as follows. Hep G2 cells (ECACC, 85011430) were passaged in flasks and seeded in 12-well plates in DMEM containing antibiotics and supplemented with 10% FBS, 24 h prior to inoculation. During inoculation and subsequent incubation, cells were cultured in DMEM containing 2% FBS. 75 plaque forming unit (PFU)/well of RSV (RSV A2, 0709161v) was mixed with 8 serial dilutions of compound. Subsequently, 200 μL of the virus/compound mixtures was added to confluent Hep G2 cell monolayers, for a 2 h infection, with manual shaking every 15 min. Infectious supernatant was then removed and replaced with 2 mL of overlay, comprising 4 parts of DMEM+2% FBS and 1 part 4% CMC, with 0.25% DMSO. The cells were incubated at 37° C. in a humidified 5% CO2 incubator for 5 days.

[3] = system: RSV A2, 0709161v; assay: RSV plaque reduction assay, alternative conditions (Hep G2 cells); details: human respiratory syncytial virus, HepG2, mean of at least 2 independent experiments, read-out: RSV Plaque Reduction Assay Strain A2 IC50
Experimental: as §1
Overlay was removed, and cells were washed with PBS before fixing with a mixture of 75% acetone 25% methanol for 3 minutes and replacing with fresh PBS. […] Staining was carried out whilst shaking at 37° C. First the plates were blocked with 500 uL PBS-T/2% milk powder per well, for 1 hr. This was then replaced with 250 uL PBS-T/2% milk powder containing a pre-titrated amount of the primary antibody (ab1128), for 90 min. The plates were washed 3×5 min with PBS-T, before addition of rabbit anti-goat horse radish peroxidase (AP106P) in 250 μL PBS-T/2% milk powder, and incubated for 1 hr. […]
Plates were scanned and analysed using the Immunospot S6 Macro analyzer, which is equipped with BioSpot analysis software for counting immunostained plaques. […]

Compound	IC50 [1]	IC90 ([2]; typical protocol, read-out: RSV Plaque Reduction Assay Strain A2 IC90)	IC50 ([2]; †: typical protocol, n = 1, read-out: RSV Plaque Reduction Assay Strain A2 IC50)	IC50 [3]
CS(=O)(=O)N1CCN(CCCn2c(CN3C(=O)C(F)(F)c4ccccc43)nc3cc(Cl)ccc32)CC1 [Compound 2, 1-({5-Chloro-1-[3-(4-methanesulfonylpiperazin-1-yl)propyl]-1H-1,3-benzodiazol-2-yl}methyl)-3,3-difluoro-2,3-dihydro-1H-indol-2-one]	16 nM	35 nM	5 nM	
CS(=O)(=O)N1CCC(n2c(CN3C(=O)C(F)(F)c4ccccc43)nc3cc(Cl)ccc32)CC1 [Compound 8, 1-{[5-Chloro-1-(1-methanesulfonylpiperidin-4-yl)-1H-1,3-benzodiazol-2-yl]methyl}-3,3-difluoro-2,3-dihydro-1H-indol-2-one]	1.7 nM			3.5 nM
